Measurements published in patent EP0437336B1, “Biophosphoryl hydrazines and their use as pesticides” (priority 1990, dated 1991).
Converted amounts (≈) assume the structure as drawn. Where two headings read alike, the source gives them in different places.

Experiments:
[1] = system: Green Peach Aphid; experiment: Biological Method D: Foliar Insecticidal Activity Test, aphid test; assay type: in vivo, Myzus persicae; parameters: key: I = inactive at concentration tested; settings: compounds a-r
Procedure: (§1) Biological Method D: Foliar Insecticidal Activity Test
(§2) In evaluating the foliar insecticidal activity of the compounds of this invention against insects and mites, the following test procedures were employed.
(§3) Not all compounds were tested at each of the several concentrations stated above. Test concentrations of a compound were selected as those most likely to differentiate dose response of a particular compound toward a particular test insect.
(§4) Initial evaluations were made on one or more of the following pests:
(§5) For the aphid test, infested broccoli (Brassica oleracea italica var. DiCicco) leaves containing about 50 aphids were placed in a Petri dish lid on a moistened piece of cotton. The leaves were then sprayed to thorough wetness with the test solution using a rotating turntable, held for twenty-four hours and then the percentage killed was determined.
(§6) The mortalities obtained in this manner were plotted on logarithmic probability paper.
(§7) The rotating turntable consists of a fixed, continuously operating spray nozzle under which targets are rotated at a fixed speed and distance. If the target is a Petri dish (such as for the bean beetle, armyworm, mite, or aphid tests), the distance from the nozzle is 38.1 cm (15 inches). If the target is a Mason jar (such as for the boll weevil test), the distance from the nozzle is 17.8 cm (7 inches). The nozzle is located 8 inches from the rotating shaft. The targets on individual platforms revolve around the shaft at 1 revolution per 20 seconds but only a brief portion of this time occurs in the spray path. Targets pass only once under the nozzle and then are removed to drying hoods.
(§8) The nozzle used is a 1/4 JCO Spraying Systems (Wheaton, Illinois) air atomizing nozzle equipped with a No. 2850 fluid cap and a No. 70 air cap. At the 68.95 x 10³ Pa gauge (10 psig) air pressure used and with liquid siphon feed, 1.89 ℓ/hr [0.5 GPH (gallons per hour)] are delivered in a round spray pattern with a 21 degree spray angle. Targets are misted with spray droplets to the point that the droplets coalesce to form a uniform thin film insufficient to drown test organisms.

[2] = system: Southern Armyworm; experiment: Biological Method D: Foliar Insecticidal Activity Test, Southern Armyworm test; assay type: in vivo, Spodoptera eridania; parameters: key: I = inactive at concentration tested; settings: compounds a-r
Procedure: as §1, §2, §3, §4
For the Mexican Bean Beetle and Southern armyworm tests, individual lima bean (Phaseolus limeniss var. Woods' Prolific) leaves were placed on moistened pieces of filter paper in Petri dishes. The leaves were then sprayed with the test solution using a rotating turntable and allowed to dry. The dishes were then infested with 10 third instar larvae of either the Mexican Been Beetle or the Southern Armyworm. The dishes were then covered. Percent mortality was determined for each species and spray concentration at 48 and 96 hours after treatment.
as §6, §7, §8

[3] = system: Mexican Bean Beetle; experiment: Biological Method D: Foliar Insecticidal Activity Test, Mexican Bean Beetle test; assay type: in vivo, Epilachna varivestis; settings: Epilachna varivestis, Mexican Bean Beetle
[4] = system: Boll Weevil; experiment: Biological Method D: Foliar Insecticidal Activity Test, boll weevil test; assay type: in vivo, Anthonomous grandis; parameters: key: I = inactive at concentration tested; settings: compounds a-r
Procedure: as §1, §2, §3, §4
For the boll weevil test, 10 adult weevils were placed in a 0.24 ℓ (0.5 pint) glass Mason jar containing a small cube of apple. The weevils were confined to the jar by fiberglass screen mesh secured by a screw-type rim cap. The jars were then sprayed with the test solution using a rotating turntable; directing the spray through the mesh into the jar. The percentage killed was determined after forty-eight and ninety six hours.
as §6, §7, §8

[5] = system: Two-Spotted Spider Mite; experiment: Biological Method D: Foliar Insecticidal Activity Test, mite test; assay type: in vivo, Tetranychus urticae; settings: Tetranychus urticae, Two-Spotted Spider Mite
[6] = system: Green Peach Aphid; experiment: Biological Method D: Foliar Insecticidal Activity Test, aphid test; assay type: in vivo, Myzus persicae; settings: Myzus persicae; Method D foliar test; Green Peach Aphid
Procedure: as §1, §2, §3, §4, §5, §6, §7, §8

[7] = system: Southern Armyworm; experiment: Biological Method D: Foliar Insecticidal Activity Test, Southern Armyworm test; assay type: in vivo, Spodoptera eridania; parameters: key: I = inactive at concentration listed
[8] = system: Boll Weevil; experiment: Biological Method D: Foliar Insecticidal Activity Test, boll weevil test; assay type: in vivo, Anthonomous grandis; parameters: key: I = inactive at concentration listed
[9] = system: southern corn rootworm, Diabrotica undecimpunctata howardi; settings: Diabrotica undecimpunctata, in Zea mays, foliar, 336 h, read-out: foliar systemic nonagressive Method B crw % control at 0.56 kg/ha (0.5 lb/acre)
[10] = system: southern corn rootworm, Diabrotica undecimpunctata howardi; experiment: Biological Method A: Corn Rootworm Screening Test (treated non-aggressive soil); settings: soil concentration giving 90% mortality, 10 days at 27°C
[11] = system: Boll Weevil; experiment: Biological Method D: Foliar Insecticidal Activity Test, boll weevil test; assay type: in vivo, Anthonomous grandis; settings: Boll Weevil, compounds a-r
[12] = foliar, 48 hrs, compounds a-r, read-out: LC 50 BB 48 hrs.
[13] = foliar, 96 hrs, compounds a-r, read-out: LC 50 BB 96 hrs.
[14] = foliar, compounds a-r, read-out: LC 50 TSM

SMILES | LC50 GPA [1] | LC50 AW 48 hrs [2] | LC50 AW 96 hrs [2] | LC50 [3, 12] [µg/mL] | LC50 [3, 13] [µg/mL] | LC50 BW 48 hrs [4] | LC50 BW 96 hrs [4] | LC50 [5, 14] [µg/mL] | LC50 BW 96 hrs [11] [ppm] | further results
CCOP(=S)(NN(C)P(=S)(OC)OC)OCC(C)(C)C (stereo not shown) [r] | I | I | I | – | – | – | – | – | – | –
CCOP(=S)(OCC)N(C)NP1(=S)OCC(C)(C)CO1 [n] | I | I | I | 150 (≈ 414 µM) | 150 (≈ 414 µM) | I | I | – | – | –
CCOP(=S)(OCC(C)(C)C)N(C)NP(=S)(OC)OC (stereo not shown) [i, N-(O,O-dimethylthiophosphoryl) N′-(O-ethyl O-neopentylthiophosphoryl) N′-methyl hydrazine] | I | I | I | – | – | I | I | 150 (≈ 412 µM) | – | –
CCCOP(=S)(NNP(=S)(OCC)SC(C)C)OCCC (stereo not shown) [Compound 23] | – | – | – | – | – | – | – | – | – | LC50 ([5]; Method D foliar test, read-out: LC50 TSM): 150 µg/mL (≈ 380 µM); LC50 [6]: 150 µg/mL (≈ 380 µM); LC50 ([3]; Method D foliar test, 48 hrs, read-out: LC50 BB 48 hrs.): 62 µg/mL (≈ 157 µM); LC50 ([3]; Method D foliar test, 96 hrs, read-out: LC50 BB 96 hrs): 78 µg/mL (≈ 198 µM); LC50 AW 48 hrs ([7]; 48 hrs): I; LC50 AW 96 hrs ([7]; 96 hrs): I; LC50 BW 48 hrs ([8]; 48 hrs): I; LC50 BW 96 hrs ([8]; 96 hrs): I; pest or weed control at 560 g/ha [9]: 16%; primary nonagressive Method A crw LC90 [10]: 0.55 ppm
CCOP(=O)(SC(C)CC)N(C)N(C)P(=S)(OC)OC (stereo not shown) [m] | I | I | I | 600 (≈ 1650 µM) | 38 (≈ 104 µM) | – | – | 150 (≈ 412 µM) | 740 | LC50 BW 48 hrs ([11]; 48 hrs): 740 ppm
COP(=S)(NN(C)P(=S)(OC)OC)OC [h] | I | I | I | – | – | I | I | – | – | –
CCOP(=S)(NN(C(=O)OC)P(=S)(OCC)OCC)OCC [o] | I | I | I | 52 (≈ 132 µM) | 45 (≈ 114 µM) | I | – | 150 (≈ 380 µM) | 740 | –
CCOP(=S)(NN(C)P(=S)(OCC)OCC)OCC(C)(C)C (stereo not shown) [j] | I | I | I | – | – | I | I | – | – | –
CCOP(=O)(NN(C)P(=S)(OC)OC)SC(C)CC (stereo not shown) [l, N-(O,O-dimethylthiophosphoryl) N'-(O-ethyl S-secbutyl chloro phosphoryl) N-methyl hydrazine] | I | I | I | – | – | I | – | 660 (≈ 1880 µM) | 740 | –
